The record followed here is patent US20200078468A1, “NEUROTENSIN RECEPTOR BINDING CONJUGATES AND FORMULATIONS THEREOF” (priority 2016, published 2020).

Square brackets hold non-standard residues; d marks the D form. Peptide text beside a SMILES is read from it. * marks the point of attachment. X5 = CC(C)C[C@H](NC(=O)[C@H](Cc1ccccc1)NC(=O)CCCCCN1C(=O)CC(*)C1=O)B1O[C@@H]2[C@@H]3C[C@H](C[C@]2(C)O1)C3(C)C; Pen = CC(C)(S)[C@H](N)C(=O)O; Tle = CC(C)(C)[C@H](N)C(=O)O

In this assay the test system is SW48 (human colon cancer cells). Nature of the assay: inhibition of SW48 cell proliferation (CellTiter Glo). The assay is classed as cell-based. The conditions noted are these: NTSR1 targeted compound; 72 hrs; read-out: SW-48 proliferation IC50. Here is the method:
Conjugates were assessed in an in vitro assay evaluating inhibition of cell proliferation. SW48 (human colon cancer cells, ATCC®), cells were plated in 96 well, flat-bottomed plates (Costar) at a concentration of 5,000 cells/well. Cells were then incubated at 37° C. with 5% CO2 for 24 hrs. After 24 hrs, cells were treated with 0.01% DMSO or compound. Compounds were added at a starting dose of 10 μM and three fold serial dilutions were done for a total often points. Following compound addition, cells were incubated at 37° C. with 5% CO2 for 72 hrs. Proliferation was measured by CellTiter Glo reagent using the standard protocol (Promega) and a Glomax multi+detection system (Promega). Percent proliferation inhibition was calculated using the following formula: % inhibition=(control−treatment)/control*100. Control is defined as vehicle alone. IC50 curves were generated using the nonlinear regression analysis (four parameter) with GraphPad Prism 6.
Conjugates are assessed for receptor-dependent cytotoxicity by the difference between an NTSR1-targeting conjugate, and the corresponding conjugate with the same linker moiety and active agent where the NTSR1-targeting domain has been scrambled.
For `CC(=O)N[C@H](C(=O)N1CCC[C@H]1C(=O)N[C@@H](CCCNC(=N)N)C(=O)N[C@@H](CCCNC(=N)N)C(=O)N1CCC[C@H]1C(=O)N[C@@H](Cc1ccc(O)cc1)C(=O)N[C@H](C(=O)N[C@@H](CC(C)C)C(=O)O)C(C)(C)C)C(C)(C)SC1CC(=O)N(CCCCCC(=O)N[C@@H](Cc2ccccc2)C(=O)N[C@@H](CC(C)C)B2O[C@@H]3[C@@H]4C[C@H](C[C@]3(C)O2)C4(C)C)C1=O` (stereo partly drawn) [Compound 1] (Ac-[Pen](X5)PRRPY[Tle]L-OH), the IC50 is over 10000 nM.

In the case of `CO[C@H]1C(=O)[C@]2(C)[C@@H](OC)C[C@H]3OC[C@@]3(OC(C)=O)[C@H]2[C@H](OC(=O)c2ccccc2)[C@]2(O)C[C@H](OC(=O)[C@H](OC(=O)N(C)CCN(C)C(=O)OCc3ccc(NC(=O)[C@H](CCCNC(N)=O)NC(=O)[C@@H](NC(=O)CCCCCN4C(=O)CC(SC(C)(C)[C@H](NC(C)=O)C(=O)N5CCC[C@H]5C(=O)N[C@@H](CCCNC(=N)N)C(=O)N[C@@H](CCCNC(=N)N)C(=O)N5CCC[C@H]5C(=O)N[C@@H](Cc5ccc(O)cc5)C(=O)N[C@H](C(=O)N[C@@H](CC(C)C)C(=O)O)C(C)(C)C)C4=O)C(C)C)cc3)[C@@H](NC(=O)OC(C)(C)C)c3ccccc3)C(C)=C1C2(C)C` (stereo partly shown) [Compound 5], the IC50 stood at 1700 nM.

For `CO[C@H]1C(=O)[C@]2(C)[C@@H](OC)C[C@H]3OC[C@@]3(OC(C)=O)[C@H]2[C@H](OC(=O)c2ccccc2)[C@]2(O)C[C@H](OC(=O)[C@H](OC(=O)N(C)CCN(C)C(=O)OCc3ccc(NC(=O)[C@H](CCCNC(N)=O)NC(=O)[C@@H](NC(=O)CCCCCN4C(=O)CC(SC(C)(C)[C@H](NC(C)=O)C(=O)N5CCC[C@H]5C(=O)N[C@@H](CCCNC(=N)N)C(=O)N(C)[C@@H](CCCNC(=N)N)C(=O)N5CCC[C@H]5C(=O)N[C@@H](Cc5ccc(O)cc5)C(=O)N[C@H](C(=O)N[C@@H](CC(C)C)C(=O)O)C(C)(C)C)C4=O)C(C)C)cc3)[C@@H](NC(=O)OC(C)(C)C)c3ccccc3)C(C)=C1C2(C)C` (stereo partly shown) [Compound 6], the IC50 amounted to 2240 nM.

In the case of `CO[C@H]1C(=O)[C@]2(C)[C@@H](OC)C[C@H]3OC[C@@]3(OC(C)=O)[C@H]2[C@H](OC(=O)c2ccccc2)[C@]2(O)C[C@H](OC(=O)[C@H](OC(=O)N(C)CCN(C)C(=O)OCc3ccc(NC(=O)[C@H](CCCNC(N)=O)NC(=O)[C@@H](NC(=O)CCCCCN4C(=O)CC(SC(C)(C)[C@H](NC(C)=O)C(=O)N5CCC[C@H]5C(=O)N[C@@H](CCCNC(=N)N)C(=O)N(C)[C@@H](CCCNC(=N)N)C(=O)N5CCC[C@H]5C(=O)N[C@H](Cc5ccc(O)cc5)C(=O)N[C@H](C(=O)N[C@@H](CC(C)C)C(=O)O)C(C)(C)C)C4=O)C(C)C)cc3)[C@@H](NC(=O)OC(C)(C)C)c3ccccc3)C(C)=C1C2(C)C` (stereo partly shown) [Compound 7], the IC50 was found to be 2000 nM.

Take `CO[C@H]1C(=O)[C@]2(C)[C@@H](OC)C[C@H]3OC[C@@]3(OC(C)=O)[C@H]2[C@H](OC(=O)c2ccccc2)[C@]2(O)C[C@H](OC(=O)[C@H](OC(=O)N(C)CCN(C)C(=O)OCc3ccc(NC(=O)[C@H](CCCNC(N)=O)NC(=O)[C@@H](NC(=O)CCCCCN4C(=O)CC(SC(C)(C)[C@H](NC(C)=O)C(=O)N5CCC[C@H]5C(=O)N[C@@H](CCCCN)C(=O)N(C)[C@@H](CCCNC(=N)N)C(=O)N5CCC[C@H]5C(=O)N[C@@H](Cc5ccc(O)cc5)C(=O)N[C@H](C(=O)N[C@@H](CC(C)C)C(=O)O)C(C)(C)C)C4=O)C(C)C)cc3)[C@@H](NC(=O)OC(C)(C)C)c3ccccc3)C(C)=C1C2(C)C` (stereo partly shown) [Compound 8]: the IC50 was found to be 2450 nM.

Take `CO[C@H]1C(=O)[C@]2(C)[C@@H](OC)C[C@H]3OC[C@@]3(OC(C)=O)[C@H]2[C@H](OC(=O)c2ccccc2)[C@]2(O)C[C@H](OC(=O)[C@H](OC(=O)N(C)CCCNC(=O)CNC(=O)[C@H](CC(C)C)NC(=O)[C@H](Cc3ccccc3)NC(=O)CNC(=O)CCCCCN3C(=O)CC(SCCC(=O)NCCCC[C@H](NC(C)=O)C(=O)N4CCC[C@H]4C(=O)N(C)[C@@H](CCCNC(=N)N)C(=O)N[C@@H](CCCNC(=N)N)C(=O)N4CCC[C@H]4C(=O)N[C@@H](Cc4ccc(O)cc4)C(=O)N[C@H](C(=O)N[C@@H](CC(C)C)C(=O)O)C(C)(C)C)C3=O)[C@@H](NC(=O)OC(C)(C)C)c3ccccc3)C(C)=C1C2(C)C` (stereo partly shown) [Compound 9]: the IC50 is over 10000 nM.

For the molecule `COc1cc2cc(c1Cl)N(C)C(=O)C[C@H](OC(=O)[C@H](C)N(C)C(=O)CCSC1CC(=O)N(CCCNC(=O)CNC(=O)[C@H](CC(C)C)NC(=O)[C@H](Cc3ccccc3)NC(=O)CNC(=O)CCCCCN3C(=O)CC(SCCC(=O)NCCCC[C@H](NC(C)=O)C(=O)N4CCC[C@H]4C(=O)N(C)[C@@H](CCCNC(=N)N)C(=O)N[C@@H](CCCNC(=N)N)C(=O)N4CCC[C@H]4C(=O)N[C@@H](Cc4ccc(O)cc4)C(=O)N[C@H](C(=O)N[C@@H](CC(C)C)C(=O)O)C(C)(C)C)C3=O)C1=O)[C@]1(C)O[C@H]1[C@H](C)[C@@H]1C[C@@](O)(NC(=O)O1)[C@H](OC)/C=C/C=C(\C)C2` (stereo partly shown) [Compound 23], the IC50 amounted to 38.6 nM.

Take `COc1cc2cc(c1Cl)N(C)C(=O)C[C@H](OC(=O)[C@H](C)N(C)C(=O)CCSC1CC(=O)N(CCCNC(=O)CNC(=O)[C@H](CC(C)C)NC(=O)[C@H](Cc3ccccc3)NC(=O)CNC(=O)CCCCCN3C(=O)CC(SCCC(=O)NCCOCCOCCC(=O)NCCCC[C@H](NC(C)=O)C(=O)N4CCC[C@H]4C(=O)N(C)[C@@H](CCCNC(=N)N)C(=O)N[C@@H](CCCNC(=N)N)C(=O)N4CCC[C@H]4C(=O)N[C@@H](Cc4ccc(O)cc4)C(=O)N[C@H](C(=O)N[C@@H](CC(C)C)C(=O)O)C(C)(C)C)C3=O)C1=O)[C@]1(C)O[C@H]1[C@H](C)[C@@H]1C[C@@](O)(NC(=O)O1)[C@H](OC)/C=C/C=C(\C)C2` (stereo partly shown) [Compound 24]: the IC50 was 2 nM.

Regarding `COc1cc2cc(c1Cl)N(C)C(=O)C[C@H](OC(=O)[C@H](C)N(C)C(=O)CCSC1CC(=O)N(CCCNC(=O)CNC(=O)[C@H](CC(C)C)NC(=O)[C@H](Cc3ccccc3)NC(=O)CNC(=O)CCCCCN3C(=O)CC(SCCC(=O)NCCOCCOCCOCCOCCC(=O)NCCCC[C@H](NC(C)=O)C(=O)N4CCC[C@H]4C(=O)N(C)[C@@H](CCCNC(=N)N)C(=O)N[C@@H](CCCNC(=N)N)C(=O)N4CCC[C@H]4C(=O)N[C@@H](Cc4ccc(O)cc4)C(=O)N[C@H](C(=O)N[C@@H](CC(C)C)C(=O)O)C(C)(C)C)C3=O)C1=O)[C@]1(C)O[C@H]1[C@H](C)[C@@H]1C[C@@](O)(NC(=O)O1)[C@H](OC)/C=C/C=C(\C)C2` (stereo partly shown) [Compound 25], the IC50 is 2.2 nM.

For `COc1cc2cc(c1Cl)N(C)C(=O)C[C@H](OC(=O)[C@H](C)N(C)C(=O)CCSC1CC(=O)N(CCCNC(=O)CNC(=O)[C@H](CC(C)C)NC(=O)[C@H](Cc3ccccc3)NC(=O)CNC(=O)CCCCCN3C(=O)CC(SCCC(=O)NCCOCCOCCOCCOCCOCCOCCOCCOCCC(=O)NCCCC[C@H](NC(C)=O)C(=O)N4CCC[C@H]4C(=O)N(C)[C@@H](CCCNC(=N)N)C(=O)N[C@@H](CCCNC(=N)N)C(=O)N4CCC[C@H]4C(=O)N[C@@H](Cc4ccc(O)cc4)C(=O)N[C@H](C(=O)N[C@@H](CC(C)C)C(=O)O)C(C)(C)C)C3=O)C1=O)[C@]1(C)O[C@H]1[C@H](C)[C@@H]1C[C@@](O)(NC(=O)O1)[C@H](OC)/C=C/C=C(\C)C2` (stereo partly shown) [Compound 26], the IC50 was 5 nM.

In the case of `CC[C@H](C)[C@@H]([C@@H](CC(=O)N1CCC[C@H]1[C@H](OC)[C@@H](C)C(=O)N[C@H](C)[C@@H](O)c1ccccc1)OC)N(C)C(=O)[C@@H](NC(=O)[C@H](C(C)C)N(C)C(=O)OCc1ccc(NC(=O)[C@H](CCCNC(N)=O)NC(=O)[C@@H](NC(=O)CCCCCN2C(=O)CC(SCCC(=O)NCCOCCOCCC(=O)NCCCC[C@H](NC(C)=O)C(=O)N3CCC[C@H]3C(=O)N(C)[C@@H](CCCNC(=N)N)C(=O)N[C@@H](CCCNC(=N)N)C(=O)N3CCC[C@H]3C(=O)N[C@@H](Cc3ccc(O)cc3)C(=O)N[C@H](C(=O)N[C@@H](CC(C)C)C(=O)O)C(C)(C)C)C2=O)C(C)C)cc1)C(C)C` (stereo partly shown) [Compound 60], the IC50 was 44.6 nM.

Consider `CC[C@H](C)[C@@H]([C@@H](CC(=O)N1CCC[C@H]1[C@H](OC)[C@@H](C)C(=O)N[C@H](C)[C@@H](O)c1ccccc1)OC)N(C)C(=O)[C@@H](NC(=O)[C@H](C(C)C)N(C)C(=O)OCc1ccc(NC(=O)[C@H](CCCNC(N)=O)NC(=O)[C@@H](NC(=O)CCCCCN2C(=O)CC(SCCC(=O)NCCOCCOCCOCCOCCC(=O)NCCCC[C@H](NC(C)=O)C(=O)N3CCC[C@H]3C(=O)N(C)[C@@H](CCCNC(=N)N)C(=O)N[C@@H](CCCNC(=N)N)C(=O)N3CCC[C@H]3C(=O)N[C@@H](Cc3ccc(O)cc3)C(=O)N[C@H](C(=O)N[C@@H](CC(C)C)C(=O)O)C(C)(C)C)C2=O)C(C)C)cc1)C(C)C` (stereo partly shown) [Compound 61], for which the IC50 stood at 33.7 nM.

`CC[C@H](C)[C@@H]([C@@H](CC(=O)N1CCC[C@H]1[C@H](OC)[C@@H](C)C(=O)N[C@H](C)[C@@H](O)c1ccccc1)OC)N(C)C(=O)[C@@H](NC(=O)[C@H](C(C)C)N(C)C(=O)OCc1ccc(NC(=O)[C@H](CCCNC(N)=O)NC(=O)[C@@H](NC(=O)CCCCCN2C(=O)CC(SCCC(=O)NCCOCCOCCOCCOCCOCCOCCOCCOCCC(=O)NCCCC[C@H](NC(C)=O)C(=O)N3CCC[C@H]3C(=O)N(C)[C@@H](CCCNC(=N)N)C(=O)N[C@@H](CCCNC(=N)N)C(=O)N3CCC[C@H]3C(=O)N[C@@H](Cc3ccc(O)cc3)C(=O)N[C@H](C(=O)N[C@@H](CC(C)C)C(=O)O)C(C)(C)C)C2=O)C(C)C)cc1)C(C)C` (stereo partly shown) [Compound 62]: the IC50 is 50.1 nM.
